Measurements taken from patent publication EP2272817A1, “PAI-1 INHIBITOR” (Institute of Medicinal Molecular Design, Inc., priority 2008, dated 2009).

The compounds below were run against recombinant human PAI-1 (Homo sapiens, UniProt P05121) (assay: Test Example 2: Human PAI-1 Inhibitory Activity (pH 7.4 HEPES buffer, 10 minutes incubation with two-chain tPA)). Details: read-out: Inhibition Rate of PAI-1 Activity (%).
Type: biochemical
Parameters: purchased Molecular Innovations, Inc
Method: 0.1 M HEPES, 0.1 M NaCl. 1 mM EDTA. 0.1 % Polyethylene glycol 8,000 (Hampton Research Corporation),
2 mM Dimethyldecylphoshine oxide [Apo-10] (Fluka Corporation)

Chain of recombinant human PAI-1 (P05121 24-402): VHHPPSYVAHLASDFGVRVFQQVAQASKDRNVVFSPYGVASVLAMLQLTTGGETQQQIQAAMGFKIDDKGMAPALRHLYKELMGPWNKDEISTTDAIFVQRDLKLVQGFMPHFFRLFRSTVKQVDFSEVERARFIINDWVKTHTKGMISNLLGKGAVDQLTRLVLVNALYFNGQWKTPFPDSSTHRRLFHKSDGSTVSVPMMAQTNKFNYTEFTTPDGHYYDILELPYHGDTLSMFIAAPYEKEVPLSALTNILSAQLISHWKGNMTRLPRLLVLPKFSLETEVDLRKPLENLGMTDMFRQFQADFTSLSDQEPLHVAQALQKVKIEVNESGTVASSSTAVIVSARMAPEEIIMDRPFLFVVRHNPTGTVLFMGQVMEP

| SMILES | inhibition at 0.1 µM [%] | inhibition at 0.3 µM [%] | inhibition at 1 µM [%] | inhibition at 3 µM [%] |
| --- | --- | --- | --- | --- |
| CCCCC(Oc1ccc(-c2ccc(OC(F)(F)F)cc2)cc1Oc1ccc(C(C)(C)C)cc1)C(=O)O (centres unmarked) [Compound 305] | 6 | 9 | 54 | 88 |
| Cc1cc(C)cc(Oc2cc(-c3ccc(C(C)(C)C)cc3)ccc2/C=C/C(=O)O)c1 [Compound 494] | 9 | 24 | 87 | 92 |
| CCCCCOc1ccc(-c2ccc(OC(F)(F)F)cc2)cc1N(CCCCc1ccc(F)cc1)C(=O)C(=O)O [Compound 382] | 13 | 12 | 84 | 97 |
| CC(C)(C)c1ccc(Oc2cc(-c3cccc(C(F)(F)F)c3)ccc2CCC(=O)O)cc1 [Compound 332] | 12 | 4 | 29 | > 99 |
| CC(C)(C)c1ccc(Oc2cc(-c3ccccc3OC(F)(F)F)ccc2CCC(=O)O)cc1 [Compound 467] | 2 | 6 | 73 | > 99 |
| CC(C)(C)c1ccc(Oc2cc(OCC(=O)O)cc(-c3ccc(OC(F)(F)F)cc3)c2)cc1 [Compound 427] | 1 | 27 | 62 | 97 |
| CCCCCCC(Oc1cc(-c2ccc(OC(F)(F)F)cc2)ccc1Oc1ccc(C(C)(C)C)cc1)C(=O)O (centres unmarked) [Compound 323] | 19 | 16 | 91 | 82 |

Next, values leading:

| inhibition at 0.1 µM [%] | inhibition at 0.3 µM [%] | inhibition at 1 µM [%] | inhibition at 3 µM [%] | SMILES |
| --- | --- | --- | --- | --- |
| 5 | 15 | 57 | > 99 | O=C(O)C(=O)N(CCCCc1ccccc1)c1cc(-c2ccc(OC(F)(F)F)cc2)ccc1Oc1ccccc1 [Compound 638] |
| 0 | 1 | 12 | 50 | COc1ccc(-c2ccc(OCC(=O)O)c(Oc3ccc(C(C)(C)C)cc3)c2)cc1 [Compound 445] |
| 26 | 12 | 23 | 92 | O=C(O)C(=O)N(CCCCc1ccccc1)c1ccc(-c2ccc3ccccc3c2)cc1 [Compound 671] |
| 12 | 24 | 72 | > 99 | CCCCC(CC(=O)O)c1cc(-c2ccc(OC(F)(F)F)cc2)ccc1Oc1ccc(C(C)(C)C)cc1 (centres unmarked) [Compound 422] |
| 9 | 20 | 97 | > 99 | O=C(O)C(=O)N(CCCCc1ccccc1)c1cc(-c2ccc(OC(F)(F)F)cc2)ccc1OC1CCCC1 [Compound 658] |
| 28 | 34 | > 99 | > 99 | CCCCCCCCCCN(C(=O)C(=O)O)c1ccc(-c2ccc(OC(F)(F)F)cc2)cc1 [Compound 669] |
| 1 | 26 | 95 | 98 | CCCCOc1ccc(Oc2cc(-c3ccc(OC(F)(F)F)cc3)ccc2CCC(=O)O)cc1 [Compound 461] |
| 0 | 3 | 56 | 92 | O=C(O)CCc1cc(-c2ccc(OC(F)(F)F)cc2)ccc1OCCCCCOc1ccc(-c2ccc(OC(F)(F)F)cc2)cc1CCC(=O)O [Compound 544] |
| 4 | 15 | 96 | > 99 | CC(C)(C)c1ccc(Oc2ccc(-c3ccc(C(C)(C)C)cc3)cc2OCC(=O)O)cc1 [Compound 453] |
| 4 | 27 | 94 | > 99 | CCC(C)(C)c1ccc(Oc2cc(-c3ccc(OC(F)(F)F)cc3)ccc2CCC(=O)O)cc1 [Compound 475] |
